Test results taken from US8088802B2, “N-phenylarylsulfonamide compound, pharmaceutical composition comprising the compound as active ingredient, synthetic intermediate for the compound and process for its preparation” (Ono Pharmaceutical Co., Ltd., priority 2001, dated 2012).
Where a name gives a salt, the structure may show the parent alone.

What was measured:
[1] = Stability measured on HPLC (Comparison Example 1); type: physicochemical; details: for Stability (in words): comment on Table 4
Experimental: A Comparison of the Stability of 4-methyl-2-thiazolylsulfonyl chloride with that of the Compound Prepared in Examples 8 and 9
The solution prepared in Reference Example 1 was concentrated under reduced pressure to give 4-methyl-2-thiazolylsulfonyl chloride. The stability of this compound and the compounds prepared in Examples 8 and 9 was measured on HPLC. The conditions of HPLC were as follows.
Column: YMC-Pack ODS-AM-302(4.6 mm*150 mm)
Eluting solvent: MeCN/3 mM tetra-n-butylammonium phosphate=40/60

mouse EP1 [2] = target: T1, mouse EP1 (Mus musculus, UniProt P35375); assay: Receptor antagonism using cells expressing EP1 in the presence of BSA (intracellular calcium); type: cell-based; set-up: expressed in transfected cells; details: inhibition of PGE2 (100 nM)-induced increase of intracellular calcium; assay buffer with 1% (w/v) BSA
T1 sequence (P35375 1-405): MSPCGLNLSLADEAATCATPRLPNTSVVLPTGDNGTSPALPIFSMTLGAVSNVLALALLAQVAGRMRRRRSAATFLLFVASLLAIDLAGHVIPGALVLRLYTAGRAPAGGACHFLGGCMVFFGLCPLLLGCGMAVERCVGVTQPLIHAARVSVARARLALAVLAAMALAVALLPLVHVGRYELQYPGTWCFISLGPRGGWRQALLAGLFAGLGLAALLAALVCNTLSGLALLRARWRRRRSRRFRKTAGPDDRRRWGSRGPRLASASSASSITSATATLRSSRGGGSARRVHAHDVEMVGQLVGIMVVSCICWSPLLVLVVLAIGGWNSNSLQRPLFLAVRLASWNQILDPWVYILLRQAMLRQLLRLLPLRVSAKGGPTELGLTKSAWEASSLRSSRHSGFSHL
Experimental: (ii) Experimental Measurement of the Activity of Receptor Antagonism Using Cells Expressing Prostanoid Receptor Subtype EP1 in the Presence of BSA (Bovine Serum Albumin)
The cells expressing mouse EP1 receptor were seeded at 1×10^4 cells/well in 96 well plates and cultured for 2 days with 10% FBS (fetal bovine serum)/minimum essential medium Eagle alpha modification (αMEM) in the incubator (37° C., 5% CO2). The cells in each well were rinsed with phosphate buffer (PBS(−)), and load buffer was added. After incubation for 1 hour, the load buffer was discarded. After the addition of the assay buffer to each well, the cells were incubated in a dark place at room temperature for 1 hour. After the addition of a compound of the present invention (10 μl) and PGE2 (10 μl) which were prepared with assay buffer, intracellular calcium concentration was measured with Fluorescence drug screening system (FDSS-4000, Hamamatsu Photonics). A pair of fluorescence intensities emitted 500 nm by an excitation wavelength of each 340 nm and 380 nm was measured.
The EP1 antagonist activity was estimated as percent inhibition of the increase of intracellular calcium concentration induced by PGE2 (100 nM).
Load buffer: 10% FBS/αMEM containing 5 μM of Fura 2/AM, 20 μM of indomethacin, 2.5 mM of probenecid
Assay buffer: Hank's balanced salt solution (HBSS) containing 1% (w/v) BSA, 2 μM of indomethacin, 2.5 mM of probenecid and 10 mM of HEPES-NaOH

mouse EP1 [3] = target: T1, mouse EP1; assay: Binding assay using expression cell of prostanoid receptor subtype (3H-PGE2 competition, membrane fraction); set-up: expressed in transfected cells; host or cells: CHO cells, membrane fraction; details: competition of 3H-PGE2 (2.5 nM) binding, CHO cell membrane fraction
Experimental: (i) Binding Assay Using Expression Cell of Prostanoid Receptor Subtype
The preparation of membrane fraction was carried out according to the method of Sugimoto et al. (J. Biol. Chem., 267, 6463-6466 (1992)), using expression CHO cell of prostanoid receptor subtype (mouse EP1, EP2, EP3α or EP4).
The standard assay mixture containing membrane fraction (0.5 mg/ml) and ^3H-PGE2 in a final volume of 200 μl was incubated for 1 hour at room temperature. The reaction was terminated by addition of ice-cold buffer (3 ml). The mixture was rapidly filtered through a glass filter (GF/B). The radioactivity associated with the filter was measured by liquid scintillation counting.
Kd and Bmax values were determined from Scatchard plots (Ann. N.Y. Acad. Sci., 51, 660 (1949)). Non-specific binding was calculated as the binding in the presence of an excess (2.5 μM) of unlabeled PGE2. In the experiment for competition of specific ^3H-PGE2 binding by the compound of the present invention, ^3H-PGE2 (2.5 nM) and the compound of the present invention were added. The following buffer was used in all reaction.
Buffer: potassium phosphate (pH 6.0, 10 mM), EDTA (1 mM), MgCl2 (10 mM) and NaCl (0.1 M).
The dissociation constant Ki (μM) of each compound was calculated by the following equation. Ki=IC50/(1+([C]/Kd))
wherein [C] is concentration of ^3H-PGE2 used in the reaction

EP1 receptor = assay: Inhibition of sulprostone-induced increase of intravesical pressure of bladder in rats; type: in vivo, rat; details: female Wistar rats, 1 mg/kg intraduodenal, 40 minutes after administration
From the text: (iii) Experiment to Assess the Inhibition of Sulprostone-Induced Increase of Intravesical Pressure of Bladder in Rats.
Female rats (Wistar) were anesthetized by urethane and their both ureters were ligated and cut off at the kidney side. The urinary bladder was incised its top and catheter was inserted. The other end of catheter was connected to the pressure transducer and the infusion pump. Repeated micturition reflex, which was induced by the continuous infusion of citrate buffer (pH 3.5) into the bladder, was recorded. The increase of micturition pressure was elicited by the subcutaneous injection of diclofenac (5 mg/kg) and sulprostone (300 μg/kg). Since such an increasing effect was not observed by the treatment of EP3 agonist, it was considered that this increase was caused by the activation of EP1 receptor. The inhibitory effects of the compound of the present invention on this increase of intravesical pressure were measured for 60 minutes after the intraduodenal administration (2 ml/kg).

Cc1csc(S(=O)(=O)Cl)n1 [4-methyl-2-thiazolylsulfonyl chloride, 4-methyl-2-thiazolylsulfonylchloride]
Residual Rate (%) ([1]; 1 °C, 24 hour): 102.0% | Residual Rate (%) ([1]; 1 °C, 48 hour): 96.3% | Residual Rate (%) ([1]; 1 °C, 72 hour): 98.6% | Residual Rate (%) ([1]; 20 °C, 24 hour): 71.4% | Residual Rate (%) ([1]; 20 °C, 48 hour): 20.6% | Residual Rate (%) ([1]; 20 °C, 66 hour): 2.0% | Residual Rate (%) ([1]; 40 °C, 16 hour): 60.9% | Residual Rate (%) ([1]; 40 °C, 24 hour): 7.6% | Stability (in words) [1]: stable at low temperature, but when subjected to room temperature or higher, it is hard to assure the stability

Cc1ccc(S(=O)(=O)N(CC(C)C)c2cc(C)c(C)cc2OCc2ccc(C(=O)O)cc2)o1 [Example 2 (6), 4-[2-[N-isobutyl-N-(5-methyl-2-furylsulfonyl)amino]-4,5-dimethylphenoxymethyl]benzoic acid]
IC50 (mouse EP1 [2]): 7.2 nM | Ki (mouse EP1 [3]): 0.32 nM

Cc1ccc(S(=O)(=O)N(CC(C)C)c2cc3c(cc2OCc2ccc(/C=C/C(=O)O)cc2)CCC3)o1 [Example 2 (32), 4-[6-[N-isobutyl-N-(5-methyl-2-furylsulfonyl)amino]indan-5-yloxymethyl]cinnamic acid]
IC50 (mouse EP1 [2]): 21 nM | Ki (mouse EP1 [3]): 7.9 nM

Cc1ccc(S(=O)(=O)N(CC(C)C)c2cc3c(cc2OCc2ccc(C(=O)O)cc2C)CCC3)o1 [Example 2 (33), 3-methyl-4-[6-[N-isobutyl-N-(5-methyl-2-furylsulfonyl)amino]indan-5-yloxymethyl]benzoic acid]
Inhibition (%) (40 minutes later) (EP1 receptor): 79 ± 11% | IC50 (mouse EP1 [2]): 4.1 nM | Ki (mouse EP1 [3]): 6.6 nM

Cc1csc(S(=O)(=O)N(CC(C)C)c2ccc(C(F)(F)F)cc2OCc2ccc(/C=C/C(=O)O)cc2)n1 [Example 2 (41), 4-[2-[N-isobutyl-N-(4-methyl-2-thiazolylsulfonyl)amino]-5-trifluoromethylphenoxymethyl]cinnamic acid]
IC50 (mouse EP1 [2]): 25 nM | Ki (mouse EP1 [3]): 1.5 nM

Cc1cc(OCc2ccc(C(=O)O)cc2C)c(N(CC(C)C)S(=O)(=O)c2ccccn2)cc1C [Example 2 (87), 3-methyl-4-[2-[N-isobutyl-N-(2-pyridylsulfonyl)amino]-4,5-dimethylphenoxymethyl]benzoic acid]
IC50 (mouse EP1 [2]): 7.3 nM | Ki (mouse EP1 [3]): 1.4 nM

Cc1cc(OCc2ccc(/C=C/C(=O)O)cc2C)c(N(CC(C)C)S(=O)(=O)c2cccnc2)cc1C [Example 2 (94), 3-methyl-4-[2-[N-isobutyl-N-(3-pyridylsulfonyl)amino]-4,5-dimethylphenoxymethyl]cinnamic acid]
IC50 (mouse EP1 [2]): 9.2 nM | Ki (mouse EP1 [3]): 3.9 nM

Cc1ccc(S(=O)(=O)N(CC(C)C)c2cc(C)c(C)cc2OCc2ccc(C(=O)O)cc2C)o1 [Example 2, 3-methyl-4-[2-[N-isobutyl-N-(5-methyl-2-furylsulfonyl)amino]-4,5-dimethylphenoxymethyl]benzoic acid]
Inhibition (%) (40 minutes later) (EP1 receptor): 68 ± 1% | IC50 (mouse EP1 [2]): 7.8 nM | Ki (mouse EP1 [3]): 4.2 nM

Cc1csc(S(=O)(=O)N(c2cc(C)c(Cl)cc2OCc2ccc(-c3nnn[nH]3)cc2C)C(C)C)n1 [Example 3 (11), N-[4-chloro-5-methyl-2-[2-methyl-4-(5-tetrazolyl)phenylmethyloxy]phenyl]-N-isopropyl-(4-methyl-2-thiazolyl)sulfonylamide]
IC50 (mouse EP1 [2]): 4.9 nM | Ki (mouse EP1 [3]): 2.3 nM

Cc1cc(OCc2ccc(-c3nnn[nH]3)cc2Cl)c(N(C(C)C)S(=O)(=O)c2cccnc2)cc1C [Example 3 (30), N-[4,5-dimethyl-2-[2-chloro-4-(5-tetrazolyl)phenylmethyloxy]phenyl]-N-isopropyl-3-pyridylsulfonylamide]
IC50 (mouse EP1 [2]): 3.7 nM | Ki (mouse EP1 [3]): 0.8 nM

Cc1csc(S(=O)(=O)N(c2cc(C)c(C)cc2OCc2ccc(-c3noc(=O)[nH]3)cc2)C(C)C)n1 [Example 4 (14), N-[4,5-dimethyl-2-[4-(5-oxo-1,2,4-oxadiazol-3-yl)phenylmethyloxy]phenyl]-N-isopropyl-(4-methyl-2-thiazolyl)sulfonylamide]
IC50 (mouse EP1 [2]): 7.1 nM | Ki (mouse EP1 [3]): 0.8 nM

Cc1csc(S(=O)(=O)On2nnc3ccccc32)n1 [Example 8, 1-(4-methylthiazol-2-ylsulfonyloxy)-1,2,3-benzotriazole]
Residual Rate (%) ([1]; 40 °C, 24 hour): 99.8% | Stability (in words) [1]: stable even at high temperature

Cc1csc(S(=O)(=O)n2cc[n+](C)c2)n1 [Example 9, 1-(4-methylthiazol-2-ylsulfonyl)-3-methylimidazol-1-onium hydrogen chloride salt]
Residual Rate (%) ([1]; 40 °C, 24 hour): 99.6% | Stability (in words) [1]: stable even at high temperature

Cc1ccc(N(CC(C)C)S(=O)(=O)c2ccco2)c(OCc2ccc(C(=O)O)cc2)c1 [Example 18 (93), reference compound]
IC50 (mouse EP1 [2]): 200 nM | Ki (mouse EP1 [3]): 0.8 nM

Cc1ccc(OCc2ccc(C(=O)O)cc2)c(N(CC(C)C)S(=O)(=O)c2ccco2)c1 [Example 18 (113), reference compound]
IC50 (mouse EP1 [2]): 470 nM | Ki (mouse EP1 [3]): 5.5 nM

CC(C)CN(c1ccc(Cl)cc1OCc1ccc(C(=O)O)cc1)S(=O)(=O)c1ccco1 [Example 18 (121), reference compound]
IC50 (mouse EP1 [2]): 260 nM | Ki (mouse EP1 [3]): 1 nM

CC(C)CN(c1cc(Cl)ccc1OCc1ccc(C(=O)O)cc1)S(=O)(=O)c1ccco1 [Example 18 (125), reference compound]
IC50 (mouse EP1 [2]): 1340 nM | Ki (mouse EP1 [3]): 1.3 nM
